# Measurements from patent publication US11332443B2, “Derivatives of halo quinabactin” (THE REGENTS OF THE UNIVERSITY OF CALIFORNIA, priority 2015, dated 2022).
# Key:
# Type in all cases: biochemical
# [1] = target: T1, PYL1-HAB1 (Arabidopsis thaliana, UniProt Q8VZS8); assay: PP2C activity assay, PYL1-HAB1 inhibition; settings: 200 nM test compound, 100 nM HAB1 PP2C, 200 nM receptor; read-out: % Inhibition of PYR/PYL-HAB1 at 200 nM: PYL1
# T1 construct: 6xHis (N); made in house; host or cells: E. coli BL21[DE3]pLysS (stated for GST-HAB1)
# T1 sequence (Q8VZS8 1-221): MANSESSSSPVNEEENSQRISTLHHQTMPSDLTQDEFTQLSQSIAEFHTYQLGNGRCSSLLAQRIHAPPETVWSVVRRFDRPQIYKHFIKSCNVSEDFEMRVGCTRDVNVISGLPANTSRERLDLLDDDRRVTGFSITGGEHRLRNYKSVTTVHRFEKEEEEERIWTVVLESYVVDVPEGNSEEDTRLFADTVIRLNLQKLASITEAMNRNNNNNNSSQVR
# T1 sequence (Q9CAJ0 23-511 partner): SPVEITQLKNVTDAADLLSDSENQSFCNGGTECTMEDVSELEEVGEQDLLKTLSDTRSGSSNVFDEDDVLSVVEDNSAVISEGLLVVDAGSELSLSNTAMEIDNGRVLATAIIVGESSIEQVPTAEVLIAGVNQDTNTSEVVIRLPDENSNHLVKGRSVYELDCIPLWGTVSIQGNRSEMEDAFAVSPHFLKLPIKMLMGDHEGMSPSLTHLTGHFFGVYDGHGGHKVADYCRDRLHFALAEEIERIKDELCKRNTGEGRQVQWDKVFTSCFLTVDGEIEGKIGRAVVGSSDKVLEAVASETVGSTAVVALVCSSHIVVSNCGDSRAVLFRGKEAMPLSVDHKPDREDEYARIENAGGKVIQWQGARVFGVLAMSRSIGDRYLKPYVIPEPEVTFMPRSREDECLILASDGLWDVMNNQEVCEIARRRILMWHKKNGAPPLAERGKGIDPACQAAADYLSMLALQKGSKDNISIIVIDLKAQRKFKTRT
# Source text: (§1) The protein HAB1, a type 2 protein phosphatase (PP2C), is inhibited by PYR/PYL proteins in dependence of abscisic acid or other agonists. The potency of an agonist correlates with the level of inhibition of the PP2C, and therefore the IC50 (receptor-HAB1) can be used to compare the relative activity of different chemical analogues. Since inhibition of PP2C correlates to inhibition of seed-germination and increase in plant water-use efficiency, it serves as a powerful tool to quantify biological potential of a chemical acting as an analogue of abscisic acid.
# (§2) HAB1 and PYL proteins were expressed and purified as described in Park et al. ((2009) Science 324(5930):1068-1071), with minor modifications. GST-HAB1 was produced by expression in BL21[DE3]pLysS host cells with an expression clone containing the HAB1 cDNA cloned into pGex-2T. Transformed E. coli cells were pre-cultured overnight, transferred to LB medium and cultured at 30° C. to culture A600 of ˜0.5 OD units. The culture was then cooled on ice and MnCl2 added to 4 mM and IPTG added to 0.3 mM. After 16 hours incubation at 15° C., cells were harvested and recombinant proteins were purified on glutathione agarose as described in Park et al. To obtain 6×His-PYL receptor fusion proteins, we used expression constructs previously described by Okamoto et al. 2013, (PNAS 110(29): 12132-12137).
# (§3) PP2C activity assays using recombinant receptors and PP2Cs were carried out as follows: purified proteins were pre-incubated in 160 μl assay buffer containing (100 mM Tris-HCl-pH7.9, 100 mM NaCl, 3 μg bovine serum albumin and 0.1% 2-mercaptoethanol), 1 mM MnCl2 with carrier solvent (DMSO), quinabactin or quinabactin analogs (compounds of the present invention) for 30 minutes at room temperature. Reactions were started by adding 40 μL of a reaction solution containing 25 mM 4-nitrophenyl phosphate in assay buffer, after which absorbance measurements were immediately collected (405 nm) using a Wallac plate reader. Reactions contained 100 nM HAB1 PP2C and 200 nM receptor and 200 nM test compound. Inhibition is indicated by reduced PP2C activity, which is expressed as a percentage of the control PP2C activity values that were obtained from assays containing carrier solvent instead but no test compound.
# [2] = target: T2, PYL2-HAB1 (Arabidopsis thaliana, UniProt O80992); assay: PP2C activity assay, PYL2-HAB1 inhibition; settings: for percent inhibition at 0.2 µM: 200 nM test compound, 100 nM HAB1 PP2C, 200 nM receptor, read-out: % Inhibition of PYR/PYL-HAB1 at 200 nM: PYL2; for IC50: dose response in triplicate, non-linear regression
# T2 construct: 6xHis (N); made in house; host or cells: E. coli BL21[DE3]pLysS (stated for GST-HAB1)
# T2 sequence (O80992 1-190): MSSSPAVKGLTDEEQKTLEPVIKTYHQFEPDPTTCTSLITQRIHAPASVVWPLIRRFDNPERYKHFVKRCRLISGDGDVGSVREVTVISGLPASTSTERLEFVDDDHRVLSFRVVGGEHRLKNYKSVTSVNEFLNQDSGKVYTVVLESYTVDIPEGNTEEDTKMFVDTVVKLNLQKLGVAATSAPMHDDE
# T2 sequence (Q9CAJ0 23-511 partner): T1 sequence (Q9CAJ0 23-511 partner)
# Source text: as §1, §2
# as §3, with “Reactions contained 100 nM HAB1 PP2C and 200 nM receptor and 200 nM test compound.” left out
# [3] = target: T3, PYR1-HAB1 (Arabidopsis thaliana, UniProt O49686); assay: PP2C activity assay, PYR1-HAB1 inhibition; settings: for activity at 0.2 µM: 200 nM test compound, 100 nM HAB1 PP2C, 200 nM receptor, read-out: % Inhibition of PYR/PYL-HAB1 at 200 nM: PYR1; for IC50: dose response in triplicate, non-linear regression
# T3 construct: 6xHis (N); made in house; host or cells: E. coli BL21[DE3]pLysS (stated for GST-HAB1)
# T3 sequence (O49686 1-191): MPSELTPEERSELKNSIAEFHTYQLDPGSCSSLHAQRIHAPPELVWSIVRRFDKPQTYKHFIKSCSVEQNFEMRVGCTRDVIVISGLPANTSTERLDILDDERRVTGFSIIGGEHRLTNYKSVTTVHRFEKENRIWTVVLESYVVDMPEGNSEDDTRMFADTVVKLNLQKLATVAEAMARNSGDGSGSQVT
# T3 sequence (Q9CAJ0 23-511 partner): T1 sequence (Q9CAJ0 23-511 partner)
# Source text: as §1, §2
# as §3, with “Reactions contained 100 nM HAB1 PP2C and 200 nM receptor and 200 nM test compound.” left out
Structure (SMILES),activity at 0.2 µM [1] [%],percent inhibition at 0.2 µM [2] [%],activity at 0.2 µM [3] [%],IC50 [2] [nM],IC50 [3] [nM]
CCCN1C(=O)CCc2cc(NS(=O)(=O)Cc3ccccc3Br)cc(F)c21 [HQ20],84.7,94.1,97.4,,
CCCN1C(=O)CCc2cc(NS(=O)(=O)Cc3ccc(OC(F)(F)F)cc3)cc(F)c21 [HQ15],47.6,70.1,54.8,,
CCN1C(=O)CC(C)c2cc(NS(=O)(=O)Cc3ccc(Cl)cn3)cc(F)c21 (stereo not drawn) [HQ54],,,,234,512
CCN1C(=O)CC(C)c2cc(NS(=O)(=O)Cc3ccc(C)cc3C)cc(F)c21 (stereo not drawn) [HQ51],,,,930,> 10000
C=CCN1C(=O)CC(C)c2cc(NS(=O)(=O)Cc3ccc(CC)cc3)cc(F)c21 (stereo not drawn) [HQ33],,,,61,204
CCN1C(=O)CC(C)c2cc(NS(=O)(=O)Cc3ccc(C)c(F)c3)cc(F)c21 (stereo not drawn) [HQ52],,,,46,444
CCCN1C(=O)CCc2cc(NS(=O)(=O)Cc3cccc(F)c3F)cc(F)c21 [HQ7],31,67.4,53.9,,
CCCN1C(=O)CCc2cc(NS(=O)(=O)Cc3cccc(Cl)c3)cc(F)c21 [HQ27],79.8,88,90,,
CCCN1C(=O)CCc2cc(NS(=O)(=O)Cc3cc(F)ccc3F)cc(F)c21 [HQ6],35.1,57.4,57.9,,
CCCN1C(=O)CCc2cc(NS(=O)(=O)Cc3ccccc3F)cc(F)c21 [HQ3],46.7,78.3,65.7,,
CCCN1C(=O)CCc2cc(NS(=O)(=O)Cc3ccc(C(F)(F)F)nc3)cc(F)c21 [HQ19],73.4,82.3,82.7,,
CCCN1C(=O)CCc2cc(NS(=O)(=O)Cc3ccc(C)cc3)cc(C#N)c21 [HQ41],,,,1450,967
CCN1C(=O)CC(C)c2cc(NS(=O)(=O)Cc3ccc(Cl)nc3)cc(F)c21 (stereo not drawn) [HQ56],,,,486,1250
CCN1C(=O)CC(C)c2cc(NS(=O)(=O)Cc3ccc(C)nc3)cc(F)c21 (stereo not drawn) [HQ55],,,,1600,> 10000
CCN1C(=O)CC(C)c2cc(NS(=O)(=O)Cc3ccc(COC)cc3)cc(F)c21 (stereo not drawn) [HQ38],,,,26,103
CCCN1C(=O)CCc2cc(NS(=O)(=O)Cc3ccc(F)cc3Br)cc(F)c21 [HQ8],87.4,92,107,,
CCCN1C(=O)CCc2cc(NS(=O)(=O)Cc3ccc(C)cc3)cc(Br)c21 [HQ40],,,,239,165
CCN1C(=O)CC(C)c2cc(NS(=O)(=O)Cc3ccc(C(F)(F)F)cc3)cc(F)c21 (stereo not drawn) [HQ44],,,,250,2370
CCN1C(=O)CC(C)c2cc(NS(=O)(=O)Cc3ccc(C)cc3F)cc(F)c21 (stereo not drawn) [HQ48],,,,23,56

Structure (SMILES),activity at 0.2 µM [1] [%],percent inhibition at 0.2 µM [2] [%],activity at 0.2 µM [3] [%],IC50 [2] [nM],IC50 [3] [nM]
CCN1C(=O)CC(C)c2cc(NS(=O)(=O)Cc3ccc(C)cn3)cc(F)c21 (stereo not drawn) [HQ53],,,,160,153
CCN1C(=O)CC(C)c2cc(NS(=O)(=O)Cc3ccc(Cl)cc3Cl)cc(F)c21 (stereo not drawn) [HQ43],,,,2010,> 10000
CCN1C(=O)CC(C)c2cc(NS(=O)(=O)Cc3ccc(C#N)cc3F)cc(F)c21 (stereo not drawn) [HQ42],,,,247,589
CCN1C(=O)CC(C)c2cc(NS(=O)(=O)Cc3ccc(C)cc3Br)cc(F)c21 (stereo not drawn) [HQ50],,,,4470,> 10000
CCN1C(=O)CC(C)c2cc(NS(=O)(=O)Cc3ccc(C#N)cc3)cc(F)c21 (stereo not drawn) [HQ49],,,,112,405
CCN1C(=O)CC(C)c2cc(NS(=O)(=O)Cc3ccc(Cl)s3)cc(F)c21 (stereo not drawn) [HQ57],,,,94,953
COCc1ccc(CS(=O)(=O)Nc2cc(F)c3c(c2)C(C)CC(=O)N3C(C)C)cc1 (stereo not drawn) [HQ37],,,,33,227
CCCN1C(=O)CCc2c1ccc(NS(=O)(=O)Cc1ccc(C)cc1)c2F [HQ46],,,,1460,694
Cc1ccc(CS(=O)(=O)Nc2cc(F)c3c(c2)C(C)CC(=O)N3C(C)C)cc1 (stereo not drawn) [HQ32],,,,40,408
"CCCN1C(=O)CCc2cc(NS(=O)(=O)Cc3ccc(C)cc3)c(F)cc21 [HQ47, N-(7-fluoro-2-oxo-1-propyl-3,4-dihydroquinolin-6-yl)-1-(p-tolyl)methanesulfonamide]",,,,182,172
CCN1C(=O)CC(C)c2cc(NS(=O)(=O)c3ccccc3)cc(F)c21 (stereo not drawn) [HQ45],,,,7730,> 10000
"CCN1C(=O)CC(C)c2cc(NS(=O)(=O)Cc3ccc(C)cc3)cc(F)c21 (stereo not drawn) [HQ30, N-(1-ethyl-8-fluoro-4-methyl-2-oxo-3,4-dihydroquinolin-6-yl)-1-(p-tolyl)methanesulfonamide]",,,,11,39.6
C=CCN1C(=O)CC(C)c2cc(NS(=O)(=O)Cc3ccc(C)cc3)cc(F)c21 (stereo not drawn) [HQ31],,,,52,164
CCc1ccc(CS(=O)(=O)Nc2cc(F)c3c(c2)C(C)CC(=O)N3C(C)C)cc1 (stereo not drawn) [HQ34],,,,26,462
CCN1C(=O)CCc2cc(NS(=O)(=O)Cc3ccc(C)cc3)cc(F)c21 [HQ29],,,,83,17.2
Cc1ccc(CS(=O)(=O)Nc2cc(F)c3c(c2)C(C)CC(=O)N3C2CC2)cc1 (stereo not drawn) [HQ39],,,,77,1260
C=CCN1C(=O)CCc2cc(NS(=O)(=O)Cc3ccc(C)cc3)cc(F)c21 [HQ28],,,,401,62.3
C=CCN1C(=O)CC(C)c2cc(NS(=O)(=O)Cc3ccc(COC)cc3)cc(F)c21 (stereo not drawn) [HQ36],,,,32,126
CCc1ccc(CS(=O)(=O)Nc2cc(F)c3c(c2)C(C)CC(=O)N3CC)cc1 (stereo not drawn) [HQ35],,,,12,37
